From patent US20200131144A1, “AMINE OR (THIO)AMIDE CONTAINING LXR MODULATORS” (Phenex-FXR GmbH, priority 2017, published 2020) come the findings set out here.

pEC50: −log10 of the molar value. Some results are limits rather than exact numbers.

The target in assay [1] is T1, LXRα ligand-binding domain (LBD) (Homo sapiens, UniProt Q13133).
T1 construct: expressed in transfected cells; host or cells: HEK293
T1 sequence (Q13133 155-447): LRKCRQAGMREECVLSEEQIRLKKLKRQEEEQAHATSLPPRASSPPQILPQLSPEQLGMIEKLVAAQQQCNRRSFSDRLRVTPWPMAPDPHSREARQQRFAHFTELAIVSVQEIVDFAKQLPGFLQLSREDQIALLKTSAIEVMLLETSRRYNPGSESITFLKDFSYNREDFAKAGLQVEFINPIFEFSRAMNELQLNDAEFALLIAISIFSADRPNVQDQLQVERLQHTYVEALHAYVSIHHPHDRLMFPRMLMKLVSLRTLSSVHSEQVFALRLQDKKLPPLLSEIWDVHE
Nature of the assay: LXR Gal4 reporter transient transfection assay, mammalian two-hybrid, LBD-M2H Gal4α. Format: cell-based. The conditions noted are these: HEK293 cells; inverse agonist unless *. Put shortly:
(§1)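 Mammalian two-hybrid read-out: interaction of LXRα or LXRβ (full length or ligand-binding domain, NFkB activation-domain fusions) with GAL4-fused SRC1 or NCoR domains drives GAL4-responsive firefly luciferase in HEK293 cells, normalised by Renilla cotransfection. Compounds given 4 h after transfection, ≤0.2% vehicle, cells lysed after 16 h.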

The target in assay [2] is T2, LXRβ ligand-binding domain (LBD) (Homo sapiens, UniProt P55055, INS174Q).
T2 construct: or LXR (amino acids 156-461); expressed in transfected cells; host or cells: HEK293
T2 sequence (P55055 with tags, fused parts or gaps INS174Q limits assumed): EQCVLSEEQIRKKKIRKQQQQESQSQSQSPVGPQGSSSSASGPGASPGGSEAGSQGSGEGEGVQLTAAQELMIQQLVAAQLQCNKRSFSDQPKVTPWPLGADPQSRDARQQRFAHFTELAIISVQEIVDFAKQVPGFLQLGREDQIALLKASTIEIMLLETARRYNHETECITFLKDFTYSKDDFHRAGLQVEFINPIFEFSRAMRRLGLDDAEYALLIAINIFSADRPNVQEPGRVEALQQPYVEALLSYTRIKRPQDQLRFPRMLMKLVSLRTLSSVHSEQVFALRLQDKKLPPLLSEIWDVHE
The assay is described as follows: LXR Gal4 reporter transient transfection assay, mammalian two-hybrid, LBD-M2H Gal4β. The format is cell-based. The conditions noted are these: HEK293 cells; inverse agonist unless *. Put shortly: as §1

On to `Cc1ccc2ccccc2c1CN(Cc1ccc(-c2cccc(C(C)(C)C(=O)O)c2)cc1)Cc1ccc(C(F)(F)F)o1` [Example 24, 2-Methyl-2-(4′-((((2-methylnaphthalen-1-yl)methyl)((5-(trifluoromethyl)furan-2-yl)methyl)amino)methyl)-[1,1′-biphenyl]-3-yl)propanoic acid], for which the pEC50 in assay [1] and in assay [2] was > 7.00 throughout.

In the case of `Cc1ccc2ccccc2c1C(=O)N(Cc1ccc(-c2cccc(S(=O)(=O)CC(=O)O)c2)cc1)Cc1ccc(C(F)(F)F)o1` [Example 9], the pEC50 in assay [1] and in assay [2] was 6.00 to 7.00 in each case.

Take `Cc1ccc2ccccc2c1C(=O)N(Cc1ccc(-c2cc(F)c(CO)c(S(=O)(=O)CC(=O)O)c2)cc1)Cc1ccc(C(F)(F)F)o1` [22/8]: the pEC50 in assay [1] and in assay [2] was > 7.00 throughout.

Consider `Cc1cc(C)c(C(=O)N(Cc2ccc(-c3cccc(C(C)(C)C(=O)O)c3)cc2)Cc2ccc(C(F)(F)F)o2)c(C)c1` [10/1], for which the pEC50 is 6.00 to 7.00 in assay [1] and > 7.00 in assay [2].

As a reminder, the pEC50 is the negative decadic logarithm of the EC50, by convention in mol/L. A higher pEC50 goes with a small EC50.
